According to publication PMC6418866 (Journal of the American Chemical Society, 2019):
pIC50: −log10 of the molar value. Read-outs that look alike come from different tables or passages of the source. Values belong to the compound of their own block, whether it stands above or below them.

What was measured:
[1] = target: T1, recombinant human GBA (rGBA, Cerezyme) (Homo sapiens, UniProt P04062, R534H); details: read-out: Apparent IC50, rGBA; 3 h preincubation; cited from earlier work
T1 sequence (P04062 40-536 R534H): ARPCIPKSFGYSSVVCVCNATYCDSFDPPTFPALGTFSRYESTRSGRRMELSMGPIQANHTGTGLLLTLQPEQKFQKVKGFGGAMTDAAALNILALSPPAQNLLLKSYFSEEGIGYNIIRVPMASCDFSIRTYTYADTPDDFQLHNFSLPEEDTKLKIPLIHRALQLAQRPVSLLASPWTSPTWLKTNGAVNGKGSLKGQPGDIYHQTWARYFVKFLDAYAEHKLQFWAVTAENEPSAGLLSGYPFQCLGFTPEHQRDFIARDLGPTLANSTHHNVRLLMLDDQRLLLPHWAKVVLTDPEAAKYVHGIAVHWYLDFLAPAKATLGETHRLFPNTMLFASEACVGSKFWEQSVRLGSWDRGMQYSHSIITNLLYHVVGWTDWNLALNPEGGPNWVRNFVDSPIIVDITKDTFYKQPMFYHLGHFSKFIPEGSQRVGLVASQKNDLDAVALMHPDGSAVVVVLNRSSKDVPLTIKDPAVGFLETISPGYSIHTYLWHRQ

[2] = target: recombinant human GAA (rGAA, Myozyme) (Homo sapiens, UniProt P10253); assay: In vitro inhibition of rGAA; details: IC50 ratio
GBA [3] = details: cited from earlier work
[4] = system: lysosomal β-glucuronidase GUSB; assay: In vivo GUSB labeling in zebrafish larvae, competitive ABPP; details: 0.1–10 μM, 5 days in vivo
[5] = system: glucosylsphingosine (GlcSph); assay: Glucosylsphingosine levels in treated zebrafish embryos; type: in vivo, Danio rerio; details: 0.1–10 μM inhibitor, zebrafish embryos treated 5 days
ER α-glucosidase GANAB = assay: In vivo GANAB labeling in zebrafish larvae, competitive ABPP; details: 0.1–10 μM, 5 days in vivo
GBA [6] = target: T2, GBA (Danio rerio, UniProt E7EZM1); assay: In vivo GBA inactivation in zebrafish larvae, quantified by ABP labeling; details: 0.1–10 μM, 5 days in vivo
T2 sequence (E7EZM1 20-518): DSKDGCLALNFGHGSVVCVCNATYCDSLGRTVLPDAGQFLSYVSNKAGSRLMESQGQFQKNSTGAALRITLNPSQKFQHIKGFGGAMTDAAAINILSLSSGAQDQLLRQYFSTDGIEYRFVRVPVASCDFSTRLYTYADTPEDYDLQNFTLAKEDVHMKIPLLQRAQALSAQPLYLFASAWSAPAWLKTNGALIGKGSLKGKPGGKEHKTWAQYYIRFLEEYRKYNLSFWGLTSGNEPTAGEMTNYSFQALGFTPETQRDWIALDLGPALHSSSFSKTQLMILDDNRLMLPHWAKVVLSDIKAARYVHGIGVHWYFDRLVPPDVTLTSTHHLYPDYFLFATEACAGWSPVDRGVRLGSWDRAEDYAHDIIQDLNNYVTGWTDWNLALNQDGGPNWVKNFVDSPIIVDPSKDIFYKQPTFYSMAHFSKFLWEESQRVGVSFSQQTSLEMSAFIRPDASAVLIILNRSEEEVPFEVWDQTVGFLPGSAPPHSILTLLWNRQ

LPH = assay: In vivo LPH labeling in zebrafish larvae, competitive ABPP; details: 0.1–10 μM, 5 days in vivo
GAA = target: T3, GAA (Danio rerio, UniProt A0A8M1QKP5); assay: In vivo GAA inactivation in zebrafish larvae, ABP labeling; details: 0.1–10 μM, 5 days in vivo
T3 sequence (A0A8M1QKP5 31-918): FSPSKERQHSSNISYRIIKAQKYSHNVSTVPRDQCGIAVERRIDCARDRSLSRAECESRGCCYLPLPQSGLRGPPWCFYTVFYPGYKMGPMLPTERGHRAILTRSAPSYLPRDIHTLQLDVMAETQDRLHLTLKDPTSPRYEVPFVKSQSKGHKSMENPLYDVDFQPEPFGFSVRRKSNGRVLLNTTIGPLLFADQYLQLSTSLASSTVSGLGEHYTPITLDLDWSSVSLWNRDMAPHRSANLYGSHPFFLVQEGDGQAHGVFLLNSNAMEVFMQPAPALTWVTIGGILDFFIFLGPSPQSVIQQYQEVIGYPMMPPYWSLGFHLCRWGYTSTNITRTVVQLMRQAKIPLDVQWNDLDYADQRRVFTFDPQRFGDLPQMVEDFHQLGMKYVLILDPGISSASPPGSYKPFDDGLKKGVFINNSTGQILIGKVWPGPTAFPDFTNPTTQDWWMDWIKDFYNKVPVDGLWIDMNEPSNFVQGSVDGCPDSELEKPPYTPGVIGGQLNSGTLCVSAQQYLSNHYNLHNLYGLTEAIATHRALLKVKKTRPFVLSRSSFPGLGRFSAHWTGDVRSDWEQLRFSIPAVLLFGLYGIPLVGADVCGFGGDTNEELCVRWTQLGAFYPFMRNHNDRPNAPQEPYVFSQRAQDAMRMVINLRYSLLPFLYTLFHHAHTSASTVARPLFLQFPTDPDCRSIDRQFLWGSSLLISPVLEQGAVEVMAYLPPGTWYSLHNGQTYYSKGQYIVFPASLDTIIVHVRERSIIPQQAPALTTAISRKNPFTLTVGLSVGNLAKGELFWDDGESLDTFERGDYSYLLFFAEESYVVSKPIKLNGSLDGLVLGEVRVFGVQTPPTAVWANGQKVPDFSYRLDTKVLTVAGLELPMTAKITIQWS

[7] = target: T1, recombinant human GBA (rGBA, Cerezyme); assay: In vitro inhibition of rGBA, 4-MU fluorogenic substrate assay; details: Apparent IC50, in vitro rGBA, 3 h preincubation, 2 nM enzyme
GBA2 = target: T4, GBA2 (Danio rerio, UniProt E7F5W0); assay: In vivo GBA2 inactivation in zebrafish larvae, ABP labeling; details: 0.1–10 μM, 5 days in vivo
T4 sequence (E7F5W0 1-851): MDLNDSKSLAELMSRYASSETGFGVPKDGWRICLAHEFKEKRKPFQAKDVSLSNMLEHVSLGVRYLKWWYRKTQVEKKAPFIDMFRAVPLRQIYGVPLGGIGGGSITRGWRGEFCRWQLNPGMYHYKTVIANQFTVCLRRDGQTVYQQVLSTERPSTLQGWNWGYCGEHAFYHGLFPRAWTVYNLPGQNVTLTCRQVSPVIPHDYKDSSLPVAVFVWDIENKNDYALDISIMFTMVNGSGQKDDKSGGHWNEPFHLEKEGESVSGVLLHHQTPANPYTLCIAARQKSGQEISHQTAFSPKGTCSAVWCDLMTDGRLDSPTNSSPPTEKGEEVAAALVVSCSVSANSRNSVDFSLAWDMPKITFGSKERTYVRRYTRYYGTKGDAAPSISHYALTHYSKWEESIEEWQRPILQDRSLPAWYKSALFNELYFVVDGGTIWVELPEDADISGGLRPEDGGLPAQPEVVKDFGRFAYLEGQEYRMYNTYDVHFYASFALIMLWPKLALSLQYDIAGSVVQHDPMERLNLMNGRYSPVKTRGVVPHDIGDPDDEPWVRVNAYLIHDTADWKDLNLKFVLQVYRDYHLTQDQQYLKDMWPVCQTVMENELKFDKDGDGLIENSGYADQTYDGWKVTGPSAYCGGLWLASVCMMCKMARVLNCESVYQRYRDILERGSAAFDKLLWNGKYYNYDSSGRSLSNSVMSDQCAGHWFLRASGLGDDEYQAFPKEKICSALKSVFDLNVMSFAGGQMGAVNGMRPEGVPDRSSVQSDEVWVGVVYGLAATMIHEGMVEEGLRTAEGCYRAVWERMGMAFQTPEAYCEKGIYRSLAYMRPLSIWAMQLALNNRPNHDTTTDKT

SMILES: O[C@H]1[C@H](O)[C@@H](O)[C@@H]2O[C@@H]2[C@@H]1O (racemic) [CBE 1, conduritol B epoxide]
pIC50 [1]: 5.37
Ratio (in vitro) GAA/GBA [2]: 444

SMILES: OC[C@@H]1[C@@H](O)[C@H](O)[C@@H](O)[C@@H]2O[C@H]12 [CP 2, cyclophellitol]
GBA inhibition potency (in words) (GBA [3]): high nanomolar to micromolar

ABP labeling of GBA with ABP 8 and ABP 5 in lysates of treated zebrafish (GBA [6]): abrogated
ABP labeling of GAA in lysates of treated zebrafish (GAA): not affected
pIC50 [7]: 9.00
ABP labeling of GBA2 in lysates of treated zebrafish (GBA2): not affected
SMILES: O[C@@H]1[C@@H](O)[C@@H]2O[C@@H]2[C@H](Cn2cc(CCCOCc3ccc(-c4ccccc4)cc3)nn2)[C@H]1O [Compound 6, Biphenyl-cyclophellitol]
ABP labeling of GUSB in lysates of treated zebrafish [4]: not affected
Elevation in the level of glucosylsphingosine (GlcSph) [5]: 10–30 fold
ABP labeling of GANAB in lysates of treated zebrafish (ER α-glucosidase GANAB): not affected
ABP labeling of LPH in lysates of treated zebrafish (LPH): not affected
